Assay results taken from publication PMC4509821 (International journal of antimicrobial agents, 2015).
≈ marks a conversion by molar mass, not a printed value.

Experiments:
[1] = system: Streptococcus gordonii DL1; assay: Streptococcus gordonii cell growth and biofilm formation; assay type: cell-based; conditions: 1.56 μM, P > 0.05
[2] = system: S. mutans biofilm; assay: Streptococcus mutans biofilm formation inhibition; assay type: cell-based; conditions: 16 h, read-out: IC50 Biofilm
[3] = system: Streptococcus mutans UA159; assay: Streptococcus mutans cell growth inhibition; assay type: cell-based
[4] = biological target: S. mutans dihydrofolate reductase (SmDHFR) (Streptococcus mutans, UniProt Q8DUI2); assay: SmDHFR enzymatic activity assay; assay type: biochemical
[5] = system: Streptococcus sanguinis SK36; assay: Streptococcus sanguinis cell growth and biofilm formation; assay type: cell-based; conditions: 1.56 μM, P > 0.05

IC50 [2]: 0.0491 ± 0.0041 µM
MIC ([3]; UA159): 0.0488 µM (≈ 0.018 µg/mL)
IC50 ([3]; UA159, read-out: IC50 Growth): 0.0425 ± 0.00322 µM
IC50 [4]: 0.0022 ± 0.0007 µM
Ki [4]: 0.0013 ± 0.0004 µM
SMILES: COc1cc(NCc2ccc3nc(N)nc(N)c3c2C)cc(OC)c1OC [TMQ, trimetrexate]
inhibition of biofilm formation of S. gordonii [1]: did not inhibit
inhibition of biofilm formation of S. sanguinis [5]: did not inhibit
